pIC50: −log10 of the molar value.
The compounds below were run on IFNγ-Induced NO Production (assay: Nitric Oxide Suppression Assay (Suppression of IFNγ-Induced NO Production)). Details: RAW264.7; RAW 264.7 mouse macrophage cells; 2 hour pre-treatment with compound (3 μM to 0.3 nM, 10 point curve); 20 ng/mL interferon gamma, ~18 hour; Griess detection; n=2-3 in duplicates.
Assay type: cell-based
Description: RAW 264.7, a mouse macrophage cell line, was obtained from American Type Culture Collection (Manassas Va.) and maintained in the log phase of growth in Dulbecco's Modified Eagle's Medium (DMEM), 10% heat inactivated fetal calf serum and 100 units/mL antibiotic-antimycotic (AA). Cells were cultured and maintained in a humidified incubator at 37° C. under 5% CO2 and 95% air. Cells were sub-cultured every 3 days by scraping and were not used beyond passage 20. All cell culture supplies were obtained from Life Technologies (Grand Island, N.Y.).
RAW 264.7 cells were plated 1 day in advance of experiment at a concentration of 80,000 cells/well onto CellBIND® 96 well plates (Corning, N.Y.) in a total volume of 100 μL. The next day, pre-treat cells with compounds (from 3 μM to 0.3 nM serially diluted in a 10 point curve) from a 10× stock by adding 10 μL per well in complete DMEM media containing 10% fetal calf serum. The plates were centrifuged for 3 minutes at 400×g at room temperature followed by 2 hour incubation at 37° C. The cells were then incubated overnight at 37° C. with 10 μL of the insult, interferon gamma (R&D Systems, Minneapolis, Minn.), from a 10× stock for a final concentration of 20 ng/mL. The plates were centrifuged for 3 minutes at 400×g at room temperature followed by ˜18 hour incubation at 37° C. The following day, transfer 50 μL cell culture supernatant from each well into a clear bottom 96 well plate and follow the instructions from Promega's Griess Detection Kit #G2930 (Madison, Wis.) which involves the addition of 50 μL of the provided sulfanilamide solution for a 5-10 minute incubation at room temperature. Next add 50 μL of the provided N-1-napthylethylenediamine dihydrochloride (NED) solution for a 5-10 minute incubation at room temperature and protected from light. If any air bubbles were introduced into the well, the plates need to be centrifuged for 5 minutes at 400×g at room temperature to avoid interference with absorbance readings. The plates were read for absorbance within 30 minutes with a filter between 520 nm and 550 nm.
For the ability of compounds to suppress the increase in nitric oxide release, the percent maximal intensity of nitric oxide detected in each well was normalized to that induced by the peak value for 20 ng/mL of interferon gamma alone and plotted against the compound concentration to calculate IC50 values and to control for plate-to-plate variability. Concentration-response data were analyzed using GraphPad Prism (San Diego, Calif.); the IC50 values were derived from a single curve fit to the mean data of n=2-3, in duplicates.
All compounds were dissolved in dimethyl sulfoxide at 10 mM stock solutions and tested at a concentration that the dimethyl sulfoxide levels never exceeded 1%.
Work on C[C@@H]1C(=O)C(C#N)=C[C@]2(c3ccccc3)c3nn(C)c(-c4ccccc4)c3CC[C@@H]12 (racemic) [Example 2, rac-(5aS,6S,9aR)-2,6-dimethyl-7-oxo-3,9a-diphenyl-4,5,5a,6,7,9a-hexahydro-2H-benzo[g]indazole-8-carbonitrile] yielded a pIC50 of 7.77.
In the case of C[C@@H]1C(=O)C(C#N)=C[C@]2(c3ccccc3)c3c(c(-c4ccccc4)nn3C)CC[C@@H]12 (racemic) [Example 3, rac-(5aS,6S,9aR)-1,6-dimethyl-7-oxo-3,9a-diphenyl-4,5,5a,6,7,9a-hexahydro-1H-benzo[g]indazole-8-carbonitrile], the pIC50 was 8.14.
COc1cccc([C@]23C=C(C#N)C(=O)[C@@H](C)[C@@H]2CCc2cn(C)nc23)c1 (racemic) [Example 4, rac-(5aS,6S,9aR)-9a-(3-methoxyphenyl)-2,6-dimethyl-7-oxo-4,5,5a,6,7,9a-hexahydro-2H-benzo[g]indazole-8-carbonitrile] was tested, and the pIC50 was 6.94.
With COc1cccc([C@]23C=C(C#N)C(=O)[C@@H](C)[C@@H]2CCc2cnn(C)c23)c1 (racemic) [Example 5, rac-(5aS,6S,9aR)-9a-(3-methoxyphenyl)-1,6-dimethyl-7-oxo-4,5,5a,6,7,9a-hexahydro-1H-benzo[g]indazole-8-carbonitrile] the pIC50 was 7.38.
C[C@@H]1C(=O)C(C#N)=C[C@]2(c3ccccc3)c3[nH]nc(-c4ccccc4)c3CC[C@@H]12 (racemic) [Example 6, rac-(5aS,6S,9aR)-6-methyl-7-oxo-3,9a-diphenyl-4,5,5a,6,7,9a-hexahydro-1H-benzo[g]indazole-8-carbonitrile] was tested, and the pIC50 was 7.43.
Compound C[C@@H]1C(=O)C(C#N)=C[C@]2(c3ccccc3)c3nc(-c4ccccc4)ncc3CC[C@@H]12 (racemic) [Example 7, rac-(6aS,7S,10aR)-7-methyl-8-oxo-2,10a-diphenyl-5,6,6a,7,8,10a-hexahydrobenzo[h]quinazoline-9-carbonitrile] has a pIC50 of 7.52.
COc1nc(-c2ccccc2)nc2c1CC[C@H]1[C@H](C)C(=O)C(C#N)=C[C@]21c1ccccc1 (racemic) [Example 8, rac-(6aS,7S,10aR)-4-methoxy-7-methyl-8-oxo-2,10a-diphenyl-5,6,6a,7,8,10a-hexahydrobenzo[h]quinazoline-9-carbonitrile] gave a pIC50 of 7.02.
For C[C@@H]1C(=O)C(C#N)=C[C@]2(c3ccccc3)c3nc(Nc4ccccc4)ncc3CC[C@@H]12 (racemic) [Example 9, rac-(6aS,7S,10aR)-2-anilino-7-methyl-8-oxo-10a-phenyl-5,6,6a,7,8,10a-hexahydrobenzo[h]quinazoline-9-carbonitrile], the pIC50 was 8.22.
For Cc1ncc2c(n1)[C@@]1(c3ccccc3)C=C(C#N)C(=O)[C@@H](C)[C@@H]1CC2 (racemic) [Example 33, rac-(6aS,7S,10aR)-2,7-dimethyl-8-oxo-10a-phenyl-5,6,6a,7,8,10a-hexahydrobenzo[h]quinazoline-9-carbonitrile], the pIC50 was 7.64.
C[C@@H]1C(=O)C(C#N)=C[C@]2(Cc3ccccc3)c3nn(C)cc3CC[C@@H]12 (racemic) [Example 162, rac-(5aS,6S,9aR)-9a-benzyl-2,6-dimethyl-7-oxo-4,5,5a,6,7,9a-hexahydro-2H-benzo[g]indazole-8-carbonitrile] was tested, and the pIC50 was 6.64.
C[C@@H]1C(=O)C(C#N)=C[C@]2(Cc3ccccc3)c3c(cnn3C)CC[C@@H]12 (racemic) [Example 163, rac-(5aS,6S,9aR)-9a-benzyl-1,6-dimethyl-7-oxo-4,5,5a,6,7,9a-hexahydro-1H-benzo[g]indazole-8-carbonitrile] showed a pIC50 of 6.39.
Work on C[C@@H]1C(=O)C(C#N)=C[C@]2(Cc3ccccc3)c3nn(C)c(-c4ccccc4)c3CC[C@@H]12 (racemic) [Example 164, rac-(5aS,6S,9aR)-9a-benzyl-2,6-dimethyl-7-oxo-3-phenyl-4,5,5a,6,7,9a-hexahydro-2H-benzo[g]indazole-8-carbonitrile] yielded a pIC50 of 7.19.
C[C@@H]1C(=O)C(C(N)=O)=C[C@]2(Cc3ccccc3)c3nn(C)c(-c4ccccc4)c3CC[C@@H]12 (racemic) [Example 165, rac-(5aS,6S,9aR)-9a-benzyl-2,6-dimethyl-7-oxo-3-phenyl-4,5,5a,6,7,9a-hexahydro-2H-benzo[g]indazole-8-carboxamide] showed a pIC50 of 6.15.
C[C@@H]1C(=O)C(C#N)=C[C@]2(c3ccccc3)c3nn(Cc4ccccc4)cc3CC[C@@H]12 (single isomer, unassigned) [Example 56] gave a pIC50 of 7.03.
C[C@@H]1C(=O)C(C#N)=C[C@]2(c3ccccc3)c3c(cnn3Cc3ccccc3)CC[C@@H]12 (single isomer, unassigned) [Example 57] was tested, and the pIC50 was 7.66.
C[C@@H]1C(=O)C(C#N)=C[C@]2(c3ccccc3)c3ncncc3CC[C@@H]12 [Example 1, (6aS,7S,10aR)-7-methyl-8-oxo-10a-phenyl-5,6,6a,7,8,10a-hexahydrobenzo[h]quinazoline-9-carbonitrile] was tested, and the pIC50 was 8.27.
In the case of COc1ccccc1-c1nc(OC)c2c(n1)[C@@]1(c3ccccc3)C=C(C#N)C(=O)[C@@H](C)[C@@H]1CC2 [Example 10, (6aS,7S,10aR)-4-methoxy-2-(2-methoxyphenyl)-7-methyl-8-oxo-10a-phenyl-5,6,6a,7,8,10a-hexahydrobenzo[h]quinazoline-9-carbonitrile], the pIC50 was 7.65.
In the case of C[C@@H]1C(=O)C(C#N)=C[C@]2(c3ccccc3)c3nc(-c4cccnc4)ncc3CC[C@@H]12 [Example 11, (6aS,7S,10aR)-7-methyl-8-oxo-10a-phenyl-2-(pyridin-3-yl)-5,6,6a,7,8,10a-hexahydrobenzo[h]quinazoline-9-carbonitrile], the pIC50 was 8.22.
In the case of CCNc1ncc2c(n1)[C@@]1(c3ccccc3)C=C(C#N)C(=O)[C@@H](C)[C@@H]1CC2 [Example 12, (6aS,7S,10aR)-2-(ethylamino)-7-methyl-8-oxo-10a-phenyl-5,6,6a,7,8,10a-hexahydrobenzo[h]quinazoline-9-carbonitrile], the pIC50 was 7.62.
For COc1nc(C)nc2c1CC[C@H]1[C@H](C)C(=O)C(C#N)=C[C@]21c1ccccc1 [Example 13, (6aS,7S,10aR)-4-methoxy-2,7-dimethyl-8-oxo-10a-phenyl-5,6,6a,7,8,10a-hexahydrobenzo[h]quinazoline-9-carbonitrile], the pIC50 was 8.32.
In the case of COc1nc(Nc2ccccc2)nc2c1CC[C@H]1[C@H](C)C(=O)C(C#N)=C[C@]21c1ccccc1 [Example 14, (6aS,7S,10aR)-2-anilino-4-methoxy-7-methyl-8-oxo-10a-phenyl-5,6,6a,7,8,10a-hexahydrobenzo[h]quinazoline-9-carbonitrile], the pIC50 was 7.94.
Work on COc1nc(Nc2ccc(Br)cc2)nc2c1CC[C@H]1[C@H](C)C(=O)C(C#N)=C[C@]21c1ccccc1 [Example 15, (6aS,7S,10aR)-2-[(4-bromophenyl)amino]-4-methoxy-7-methyl-8-oxo-10a-phenyl-5,6,6a,7,8,10a-hexahydrobenzo[h]quinazoline-9-carbonitrile] yielded a pIC50 of 7.52.
Work on C[C@@H]1C(=O)C(C#N)=C[C@]2(c3ccccc3)c3nc(Nc4ccccc4)nc(-c4cncnc4)c3CC[C@@H]12 [Example 16, (6aS,7S,10aR)-2-anilino-7-methyl-8-oxo-10a-phenyl-4-(pyrimidin-5-yl)-5,6,6a,7,8,10a-hexahydrobenzo[h]quinazoline-9-carbonitrile] yielded a pIC50 of 8.11.
Work on Cc1nc(-c2cncn2C)c2c(n1)[C@@]1(c3ccccc3)C=C(C#N)C(=O)[C@@H](C)[C@@H]1CC2 [Example 17, (6aS,7S,10aR)-2,7-dimethyl-4-(1-methyl-1H-imidazol-5-yl)-8-oxo-10a-phenyl-5,6,6a,7,8,10a-hexahydrobenzo[h]quinazoline-9-carbonitrile] yielded a pIC50 of 8.49.
Compound Cc1nc(-c2cnc(C)s2)c2c(n1)[C@@]1(c3ccccc3)C=C(C#N)C(=O)[C@@H](C)[C@@H]1CC2 [Example 18, (6aS,7S,10aR)-2,7-dimethyl-4-(2-methyl-1,3-thiazol-5-yl)-8-oxo-10a-phenyl-5,6,6a,7,8,10a-hexahydrobenzo[h]quinazoline-9-carbonitrile] has a pIC50 of 8.29.
Compound C[C@@H]1C(=O)C(C#N)=C[C@]2(c3ccccc3)c3nc(N4CCOCC4)ncc3CC[C@@H]12 [Example 19, (6aS,7S,10aR)-7-methyl-2-(morpholin-4-yl)-8-oxo-10a-phenyl-5,6,6a,7,8,10a-hexahydrobenzo[h]quinazoline-9-carbonitrile] has a pIC50 of 7.44.
